Legend:
Type in all cases: in vivo
Lolium perenne (LOLPE) [1] = test: Example B pre-emergence herbicidal test, LOLPE; details: Lolium perenne, 312 h, rate 250 g/ha, evaluated after 13 days, 100=total damage to plant, 0=no damage to plant
Summary of the method: (§1)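 Plants were rated 13 days after treatment, 0 = no damage to 100 = total damage. They were grown in a glasshouse at 24/16 °C, 14 h light, 65% humidity and watered twice daily. Pre-emergence spray was applied one day after sowing, formulated in acetone/water 50:50 with 0.5% Tween 20.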

[2] = system: Alopecurus myosuroides (ALOMY); test: Example B pre-emergence herbicidal test, ALOMY; details: Alopecurus myosuroides, 312 h, rate 250 g/ha, evaluated after 13 days, 100=total damage to plant, 0=no damage to plant
Summary of the method: as §1

[3] = system: Echinochloa crus-galli (ECHCG); test: Example B pre-emergence herbicidal test, ECHCG; details: Echinochloa crus-galli, 312 h, rate 250 g/ha, evaluated after 13 days, 100=total damage to plant, 0=no damage to plant
Summary of the method: as §1

Avena fatua (AVEFA) [4] = test: Example B pre-emergence herbicidal test, AVEFA; details: Avena fatua, 312 h, rate 250 g/ha, evaluated after 13 days, 100=total damage to plant, 0=no damage to plant
Summary of the method: as §1

Lolium perenne (LOLPE) [5] = test: Example B post-emergence herbicidal test, LOLPE; details: Lolium perenne, 312 h, rate 250 g/ha, evaluated after 13 days, scale 0-100, read-out: Post-emergence activity LOLPE (100=total damage to plant; 0=no damage to plant)
Summary of the method: (§2)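 Damage was rated visually 13 days after treatment, where 100 meant total plant damage and 0 none. Treatment was a spray of aqueous solution (acetone/water 50:50, 0.5% Tween 20) applied to plants cultivated 8 days from seed under controlled glasshouse conditions.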

[6] = system: Alopecurus myosuroides (ALOMY); test: Example B post-emergence herbicidal test, ALOMY; details: Alopecurus myosuroides, 312 h, rate 250 g/ha, evaluated after 13 days, scale 0-100, read-out: Post-emergence activity ALOMY (100=total damage to plant; 0=no damage to plant)
Summary of the method: as §2

[7] = system: Echinochloa crus-galli (ECHCG); test: Example B post-emergence herbicidal test, ECHCG; details: Echinochloa crus-galli, 312 h, rate 250 g/ha, evaluated after 13 days, scale 0-100, read-out: Post-emergence activity ECHCG (100=total damage to plant; 0=no damage to plant)
Summary of the method: as §2

Avena fatua (AVEFA) [8] = test: Example B post-emergence herbicidal test, AVEFA; details: Avena fatua, 312 h, rate 250 g/ha, evaluated after 13 days, scale 0-100, read-out: Post-emergence activity AVEFA (100=total damage to plant; 0=no damage to plant)
Summary of the method: as §2

| Structure (SMILES) | pest or weed control at 250 g/ha (Lolium perenne (LOLPE) [1]) | pest or weed control at 250 g/ha [2] | pest or weed control at 250 g/ha [3] | pest or weed control at 250 g/ha (Avena fatua (AVEFA) [4]) | pest or weed control at 250 g/ha (Lolium perenne (LOLPE) [5]) | pest or weed control at 250 g/ha [6] | pest or weed control at 250 g/ha [7] | pest or weed control at 250 g/ha (Avena fatua (AVEFA) [8]) |
| --- | --- | --- | --- | --- | --- | --- | --- | --- |
| Cc1cc(C)c(C2C(=O)CC(CC3CCN(C(=O)C(C)Cl)CC3)C2=O)c(C)c1 (stereo not drawn) [Compound T87] | 100% | 90% | 60% | 90% | 90% | 70% | 70% | 90% |
| Cc1cc(C)c(C2C(=O)CC(CC3CCN(C(=O)C4CCCCC4)CC3)C2=O)c(C)c1 (stereo not drawn) [Compound T89] | 70% | 50% | 60% | 10% | 40% | 30% | 40% | 20% |
| Cc1cc(C)c(C2C(=O)CC(CC3CCN(C(=O)c4ccco4)CC3)C2=O)c(C)c1 (stereo not drawn) [Compound T90] | 60% | 40% | 50% | 60% | 80% | 70% | 80% | 100% |
| Cc1cc(C)c(C2C(=O)CC(CC3CCN(S(=O)(=O)c4ccccc4)CC3)C2=O)c(C)c1 (stereo not drawn) [Compound T91] | 70% | 20% | 60% | 40% | 50% | 40% | 50% | 90% |
| Cc1cc(C)c(C2C(=O)CC(CC3CCN(S(=O)(=O)c4ccc(Cl)cc4)CC3)C2=O)c(C)c1 (stereo not drawn) [Compound T92] | 30% | 30% | 40% | 10% | 20% | 30% | 40% | 60% |
| Cc1cc(C)c(C2C(=O)CC(CC3CCN(S(=O)(=O)C(C)C)CC3)C2=O)c(C)c1 (stereo not drawn) [Compound T93] | 90% | 60% | 90% | 60% | 70% | 60% | 60% | 70% |
| Cc1cc(C)c(C2C(=O)CC(CC3CCN(S(C)(=O)=O)CC3)C2=O)c(C)c1 (stereo not drawn) [Compound T94] | 90% | 90% | 80% | 90% | 90% | 100% | 90% | 100% |
| CCS(=O)(=O)N1CCC(CC2CC(=O)C(c3c(C)cc(C)cc3C)C2=O)CC1 (stereo not drawn) [Compound T95] | 100% | 90% | 60% | 90% | 100% | 90% | 70% | 100% |
| CCCCS(=O)(=O)N1CCC(CC2CC(=O)C(c3c(C)cc(C)cc3C)C2=O)CC1 (stereo not drawn) [Compound T96] | 60% | 20% | 20% | 10% | 60% | 60% | 40% | 40% |
| COc1ccc(C(=O)N2CCC(CC3CC(=O)C(c4c(C)cc(C)cc4C)C3=O)CC2)cc1 (stereo not drawn) [Compound T97] | 70% | 30% | 60% | 30% | 60% | 70% | 80% | 70% |
| Cc1cc(C)c(C2C(=O)CC(CC3CCN(C(=O)c4ccc(C(F)(F)F)cc4)CC3)C2=O)c(C)c1 (stereo not drawn) [Compound T99] | 60% | 20% | 60% | 30% | 50% | 70% | 90% | 90% |
| Cc1cc(C)c(C2C(=O)CC(CC3CCN(C(=O)N4CCOCC4)CC3)C2=O)c(C)c1 (stereo not drawn) [Compound T100] | 90% | 60% | 70% | 60% | 80% | 90% | 60% | 90% |
| C=CCOC(=O)N1CCC(CC2CC(=O)C(c3c(C)cc(C)cc3C)C2=O)CC1 (stereo not drawn) [Compound T101] | 50% | 20% | 50% | 30% | 40% | 40% | 20% | 40% |
| C=COC(=O)N1CCC(CC2CC(=O)C(c3c(C)cc(C)cc3C)C2=O)CC1 (stereo not drawn) [Compound T102] | 70% | 50% | 50% | 30% | 80% | 90% | 40% | 90% |
| Cc1cc(C)c(C2C(=O)CC(CC3CCN(C(=O)OCCCl)CC3)C2=O)c(C)c1 (stereo not drawn) [Compound T103] | 30% | 30% | 10% | 20% | 50% | 50% | 30% | 60% |
| CC(C)=CC(=O)N1CCC(CC2CC(=O)C(c3c(C)cc(C)cc3C)C2=O)CC1 (stereo not drawn) [Compound T104] | 70% | 60% | 90% | 60% | 80% | 70% | 70% | 90% |
| Cc1cc(C)c(C2C(=O)CC(CC3CCN(C(=O)C(Cl)(Cl)Cl)CC3)C2=O)c(C)c1 (stereo not drawn) [Compound T105] | 60% | 20% | 40% | 30% | 50% | 30% | 30% | 40% |
| Cc1cc(C)c(C2C(=O)CC(CC3CCN(C(=O)c4cc(F)c(Cl)nc4Cl)CC3)C2=O)c(C)c1 (stereo not drawn) [Compound T106] | 20% | 20% | 20% | 30% | 30% | 40% | 30% | 10% |
| Cc1cc(C)c(C2C(=O)CC(CC3CCN(C(=O)OC(C)C)CC3)C2=O)c(C)c1 (stereo not drawn) [Compound T107] | 70% | 80% | 70% | 60% | 90% | 70% | 60% | 90% |
| CCOC(=O)N1CCC(CC2CC(=O)C(c3c(C)cc(C)cc3C)C2=O)CC1 (stereo not drawn) [Compound T108] | 50% | 10% | 60% | 40% | 70% | 70% | 40% | 70% |
| Cc1cc(C)c(C2C(=O)CC(CC3CCN(C(=O)c4cccs4)CC3)C2=O)c(C)c1 (stereo not drawn) [Compound T110] | 50% | 30% | 70% | 30% | 50% | 30% | 40% | 80% |
